From ChEMBL document CHEMBL1139882, “Aurantiomides A-C, quinazoline alkaloids from the sponge-derived fungus Penicillium aurantiogriseum SP0-19” (J Nat Prod, 2007)
Converted amounts (≈) assume the structure as drawn.

Legend:
P388 = assay: Cytotoxicity against P388 cells after 72 hrs by MTT assay; assay type: cell-based, Mus musculus; settings: for IC50: Mus musculus, P388, 72 h
HL-60 = assay: Cytotoxicity against HL60 cells after 72 hrs by MTT assay; assay type: cell-based, Homo sapiens
[1] = Cytotoxicity against BEL-7402 cells after 72 hrs by MTT assay; assay type: cell-based, Homo sapiens
A549 = assay: Cytotoxicity against A549 cells after 72 hrs by MTT assay; assay type: cell-based; settings: human, a549, 72 h

CC(C)C[C@]1(O)NC(=O)[C@H](CCC(N)=O)n2c1nc1ccccc1c2=O [AURANTIOMIDE B]
IC50 (P388): 54 mg/L (≈ 151 µM)
IC50 (HL-60; Homo sapiens, HL-60, 72 h): 52 mg/L (≈ 145 µM)

CO[C@@]1(CC(C)C)NC(=O)[C@H](CCC(N)=O)n2c1nc1ccccc1c2=O [AURANTIOMIDE A]
Activity (P388; mouse, p388, 72 h): Not Active
Activity ([1]; human, bel-7402, 72 h): Not Active
Activity (A549): Not Active
Activity (HL-60; human, hl-60, 72 h): Not Active

CC(C)/C=C1\NC(=O)[C@H](CCC(N)=O)n2c1nc1ccccc1c2=O [AURANTIOMIDE C]
IC50 (P388): 48 mg/L (≈ 141 µM)
IC50 ([1]; Homo sapiens, Bel-7402, 72 h): 48 mg/L (≈ 141 µM)
